From ChEMBL document CHEMBL3271991, “A series of hexahydro[1,4]oxazino[3,4-a]isoquinolines as potential neuroleptics” (J Med Chem, 1978)
Calls of active or inactive are those of the source. No cut-off for these calls is given here.

Experiments:
[1] = Toxicity in wild fox assessed as ataxia at 32 mg/kg, ip; format: organism-based; set-up: dose 32 mg/kg, route intraperitoneal; settings: vulpes vulpes, in vivo
[2] = test system: Vulpes vulpes; experiment: Neuroleptic activity in wild fox assessed as taming effect at 32 mg/kg, ip; format: functional, organism-based; set-up: dose 32 mg/kg
[3] = test system: Gerbillinae; experiment: Neuroleptic activity in gerbil assessed as escape latency time at 16 mg/kg, ip measured up to 50 mins by sidman avoidance test relative to control; format: functional; settings: route intraperitoneal
[4] = test system: Gerbillinae; experiment: Neuroleptic activity in gerbil assessed as escape latency time at 2 mg/kg, ip measured up to 50 mins by sidman avoidance test relative to control; format: functional; settings: route intraperitoneal
[5] = Toxicity in po dosed mouse; format: organism-based; settings: in vivo
[6] = Toxicity in wild fox assessed as ataxia at 16 mg/kg, ip; format: organism-based; set-up: dose 16 mg/kg, route intraperitoneal; settings: vulpes vulpes, in vivo
[7] = test system: Mus musculus; experiment: Neuroleptic activity in ip dosed mouse assessed as blockade of traction reflex by measuring failure to grasp wire with hind paws measured for 5 secs; format: functional
[8] = test system: Mus musculus; experiment: Neuroleptic activity in ip dosed mouse assessed as blockade of prehensile reflex by measuring failure to hang measured for 5 secs; format: functional
[9] = test system: Gerbillinae; experiment: Neuroleptic activity in gerbil assessed as escape latency time at 4 mg/kg, ip measured up to 50 mins by sidman avoidance test relative to control; format: functional; settings: route intraperitoneal
[10] = test system: Gerbillinae; experiment: Neuroleptic activity in gerbil assessed as escape latency time at 8 mg/kg, ip measured up to 50 mins by sidman avoidance test relative to control; format: functional; settings: route intraperitoneal
[11] = test system: Gerbillinae; experiment: Neuroleptic activity in ip dosed gerbil up to 50 mins by sidman avoidance test; format: functional; settings: read-out: MED
[12] = Toxicity in ip dosed mouse; format: organism-based; settings: in vivo
[13] = test system: Rhesus monkey; experiment: Toxicity in monkey assessed as ataxia at 16 mg/kg, ip; format: organism-based, Macaca mulatta; set-up: dose 16 mg/kg, route intraperitoneal; settings: in vivo
[14] = test system: Felis catus; experiment: Induction of muscle relaxant effect in cat at 20 mg/kg, iv; format: functional, organism-based; set-up: dose 20 mg/kg
[15] = test system: Vulpes vulpes; experiment: Neuroleptic activity in wild fox assessed as taming effect at 16 mg/kg, ip; format: functional, organism-based; set-up: dose 16 mg/kg
[16] = test system: Rhesus monkey; experiment: Neuroleptic activity in monkey assessed as taming effect at 16 mg/kg, ip; format: functional, organism-based; set-up: dose 16 mg/kg; settings: Macaca mulatta
[17] = test system: Mus musculus; experiment: Neuroleptic activity in ip dosed mouse assessed as blockade of righting reflex by measuring failure to right to normal position measured for 30 secs; format: functional
[18] = test system: Mus musculus; experiment: Neuroleptic activity in ip dosed mouse assessed as blockade of corneal reflex by measuring failure to blink; format: functional; settings: Cornea
[19] = test system: Mus musculus; experiment: Neuroleptic activity in mouse assessed as blockade of corneal reflex by measuring failure to blink at 640 mg/kg, ip; format: functional, organism-based; set-up: dose 640 mg/kg; settings: Cornea
[20] = test system: Mus musculus; experiment: Neuroleptic activity in mouse assessed as blockade of traction reflex by measuring failure to grasp wire with hind paws at 640 mg/kg, ip measured for 5 secs; format: functional, organism-based; set-up: dose 640 mg/kg
[21] = test system: Mus musculus; experiment: Neuroleptic activity in mouse assessed as blockade of righting reflex by measuring failure to right to normal position at 640 mg/kg, ip measured for 30 secs; format: functional, organism-based; set-up: dose 640 mg/kg
[22] = test system: Mus musculus; experiment: Neuroleptic activity in mouse assessed as blockade of prehensile reflex by measuring failure to hang at 640 mg/kg, ip measured for 5 secs; format: functional, organism-based; set-up: dose 640 mg/kg
[23] = test system: Gerbillinae; experiment: Neuroleptic activity in gerbil assessed as escape latency time at 80 mg/kg, ip measured up to 50 mins by sidman avoidance test relative to control; format: functional; settings: route intraperitoneal
[24] = test system: Gerbillinae; experiment: Neuroleptic activity in gerbil assessed as escape latency time at 20 mg/kg, ip measured up to 50 mins by sidman avoidance test relative to control; format: functional; settings: route intraperitoneal
[25] = test system: Gerbillinae; experiment: Neuroleptic activity in gerbil assessed as escape latency time at 40 mg/kg, ip measured up to 50 mins by sidman avoidance test relative to control; format: functional; settings: route intraperitoneal
[26] = test system: Gerbillinae; experiment: Neuroleptic activity in gerbil assessed as escape latency time at 10 mg/kg, ip measured up to 50 mins by sidman avoidance test relative to control; format: functional; settings: route intraperitoneal
[27] = test system: Gerbillinae; experiment: Neuroleptic activity in gerbil assessed as escape latency time at 2.5 mg/kg, ip measured up to 50 mins by sidman avoidance test relative to control; format: functional; settings: route intraperitoneal
[28] = test system: Gerbillinae; experiment: Neuroleptic activity in gerbil assessed as escape latency time at 5 mg/kg, ip measured up to 50 mins by sidman avoidance test relative to control; format: functional; settings: route intraperitoneal
[29] = test system: Gerbillinae; experiment: Neuroleptic activity in gerbil assessed as escape latency time at 0.5 mg/kg, ip measured up to 50 mins by sidman avoidance test relative to control; format: functional; settings: route intraperitoneal
[30] = test system: Vulpes vulpes; experiment: Neuroleptic activity in wild fox assessed as taming effect at 4 mg/kg, ip; format: functional, organism-based; set-up: dose 4 mg/kg
[31] = Toxicity in wild fox assessed as ataxia at 4 mg/kg, ip; format: organism-based; set-up: dose 4 mg/kg, route intraperitoneal; settings: vulpes vulpes, in vivo
[32] = test system: Gerbillinae; experiment: Neuroleptic activity in gerbil assessed as escape latency time at 1 mg/kg, ip measured up to 50 mins by sidman avoidance test relative to control; format: functional; settings: route intraperitoneal
[33] = Mus musculus, ip, read-out: ED50

Compound: CNC1=Nc2ccccc2C(c2ccccc2)=[N+]([O-])C1
- Activity [1]: Non-toxic
- Activity [2]: Active

Compound: CCN(CC)C(=O)[C@H]1CN2CCc3cc(OC)c(OC)cc3[C@H]2CO1.Cl (racemic)
- Time [3]: 0.8 s
- Time [4]: 0.6 s
- LD50 [5]: 1400 mg/kg
- Activity [6]: Non-toxic
- ED50 [7, 33]: 100 mg/kg
- ED50 [8, 33]: 400 mg/kg
- Time [9]: 0.8 s
- Time [10]: 0.5 s
- minimal effective dose [11]: 25 mg/kg
- LD50 [12]: 1100 mg/kg
- Activity [13]: Non-toxic

Compound: CCN(CC)C(=O)[C@H]1CN2CCc3cc(OC)c(OC)cc3[C@H]2CO1 (racemic)
- Activity [14]: Active
- Activity [15]: Active
- Activity [16]: Active

Compound: COc1cc2c(cc1OC)[C@H]1CO[C@H](C#N)CN1CC2 (relative stereo)
- ED50 [7, 33]: 180 mg/kg
- ED50 [8, 33]: > 640 mg/kg

Compound: CCN(CC)C(=O)[C@H]1CN2CCc3cc(OC)c(OC)cc3[C@H]2CO1 (relative stereo)
- ED50 [7, 33]: 110 mg/kg
- ED50 [8, 33]: 500 mg/kg

Compound: COc1cc2c(cc1OC)[C@H]1CO[C@@H](C(=O)N3CCCC3)CN1CC2 (relative stereo)
- ED50 [7, 33]: 180 mg/kg
- ED50 [8, 33]: > 640 mg/kg

Compound: COc1cc2c(cc1OC)[C@H]1CO[C@@H](C(=O)N3CCCCC3)CN1CC2 (relative stereo)
- ED50 [7, 33]: 180 mg/kg
- ED50 [8, 33]: 280 mg/kg
- ED50 [17]: 280 mg/kg
- ED50 [18]: 450 mg/kg

Compound: COc1cc2c(cc1OC)[C@H]1CO[C@@H](C(=O)N3CCOCC3)CN1CC2 (relative stereo)
- ED50 [7, 33]: 200 mg/kg
- ED50 [8, 33]: > 640 mg/kg

Compound: CCOC(=O)[C@H]1CN2CCc3cc(OC)c(OC)cc3[C@H]2CO1 (relative stereo)
- Activity [19]: inactive
- Activity [20]: inactive
- Activity [21]: inactive
- Activity [22]: inactive

Compound: CCN(CC)C(=O)C1CN2CCc3cc(OC)c(OC)cc3C2CO1 (stereo in doubt; 19)
- Time [23]: 2.2 s
- Time [24]: 0.5 s
- Time [25]: 1.2 s
- ED50 [7, 33]: 125 mg/kg
- ED50 [8, 33]: 400 mg/kg

Compound: CCN(CC)C(=O)C1CN2CCc3cc(OC)c(OC)cc3C2CO1 (stereo in doubt; 20)
- Time [26]: 1.2 s
- Time [27]: 0.5 s
- Time [24]: 2.4 s
- Time [28]: 0.6 s
- ED50 [7]: 150 mg/kg
- ED50 [8]: 460 mg/kg

Compound: CN(C)CCCN1c2ccccc2Sc2ccc(Cl)cc21 [CHLORPROMAZINE]
- Time [29]: 1 s
- Time [4]: 0.8 s
- Activity [30]: Active
- ED50 [7, 33]: 6 mg/kg
- ED50 [8, 33]: 74 mg/kg
- ED50 [17]: 115 mg/kg
- Activity [31]: Non-toxic
- Time [32]: 1.1 s
- ED50 [18]: 160 mg/kg

Compound: CCCC(C)(COC(N)=O)COC(N)=O [MEPROBAMATE]
- ED50 [7, 33]: 160 mg/kg
- ED50 [8, 33]: 225 mg/kg
- ED50 [17]: 320 mg/kg
- ED50 [18]: 400 mg/kg

Compound: CCC1(c2ccccc2)C(=O)NC(=O)NC1=O [PHENOBARBITAL]
- ED50 [7, 33]: 64 mg/kg
- ED50 [8, 33]: 82 mg/kg
- ED50 [17]: 140 mg/kg
- ED50 [18]: 100 mg/kg
